From US10208019B2, “GLP-1 receptor agonists and uses thereof” (Pfizer Inc., priority 2016, dated 2019)
Read-outs that look alike come from different tables or passages of the source.

Legend:
human GLP-1R [1] = target: human GLP-1R (Homo sapiens, UniProt P43220, G168S); test: CHO GLP-1R Clone H6—Assay 1: HTRF cAMP cell-based functional agonist assay (high GLP-1R density); details: for EC50: CHO GLP-1R Clone H6, cAMP HTRF, geometric mean; for Emax: read-out: Assay 1 Emax (%), CHO GLP-1R Clone H6, relative to saturating concentration of full agonist GLP-1 (1 μM), arithmetic mean
human GLP-1R [2] = target: human GLP-1R (Homo sapiens (Human), UniProt P43220, L260F); test: CHO GLP-1R Clone C6—Assay 2: HTRF cAMP cell-based functional agonist assay (low GLP-1R density); details: for EC50: CHO GLP-1R Clone C6, cAMP HTRF, geometric mean; for Emax: CHO GLP-1R Clone C6, relative to saturating concentration of full agonist GLP-1 (1 μM), arithmetic mean, read-out: Assay 2 Emax (%)
human GLP-1R (Homo sapiens (Human), UniProt P43220, L260F), sequence (P43220 24-463 L260F): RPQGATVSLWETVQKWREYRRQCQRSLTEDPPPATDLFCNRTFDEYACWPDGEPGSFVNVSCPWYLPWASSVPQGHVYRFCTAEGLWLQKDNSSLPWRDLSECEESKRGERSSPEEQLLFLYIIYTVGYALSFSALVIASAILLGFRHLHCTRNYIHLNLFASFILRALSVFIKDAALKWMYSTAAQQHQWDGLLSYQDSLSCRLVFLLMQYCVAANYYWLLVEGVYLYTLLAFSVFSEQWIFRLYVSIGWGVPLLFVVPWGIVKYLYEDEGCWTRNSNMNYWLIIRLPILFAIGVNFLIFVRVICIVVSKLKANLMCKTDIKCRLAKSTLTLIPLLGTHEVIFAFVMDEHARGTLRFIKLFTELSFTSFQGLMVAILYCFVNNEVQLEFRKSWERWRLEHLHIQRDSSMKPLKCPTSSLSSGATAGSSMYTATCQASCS
Method: GLP-1R-mediated agonist activity was determined with a cell-based functional assay utilizing an HTRF (Homogeneous Time-Resolved Fluorescence) cAMP detection kit (cAMP HI Range Assay Kit; Cis Bio cat #62AM6PEJ) that measures cAMP levels in the cell. The method is a competitive immunoassay between native cAMP produced by the cells and exogenous cAMP labeled with the dye d2. The tracer binding is visualized by a mAb anti-cAMP labeled with Cryptate. The specific signal (i.e. energy transfer) is inversely proportional to the concentration of cAMP in either a standard or an experimental sample.
The human GLP-1R coding sequence (NCBI Reference Sequence NP_002053.3, including naturally-occurring variant Leu260Phe) was subcloned into pcDNA5-FRT-TO and a clonal CHO cell line stably expressing a low receptor density was isolated using the Flp-In™ T-Rex™ System, as described by the manufacturer (ThermoFisher).
Cells were removed from cryopreservation, re-suspended in 40 mL of Dulbecco's Phosphate Buffered Saline (DPBS-Lonza Cat #17-512Q) and centrifuged at 800×g for 5 min at 22° C. The DPBS was aspirated, and the cell pellet was re-suspended in 10 mL of complete growth medium (DMEM:F12 1:1 Mixture with HEPES, L-Gln, 500 mL (DMEM/F12 Lonza Cat #12-719F), 10% heat inactivated fetal bovine serum (Gibco Cat #16140-071), 5 mL of 100× Pen-Strep (Gibco Cat #15140-122), 5 mL of 100× L-Glutamine (Gibco Cat #25030-081), 700 μg/mL Hygromycin (Invitrogen Cat #10687010) and 15 μg/mL Blasticidin (Gibco Cat #R21001). A 1 mL sample of the cell suspension in growth media was counted on a Becton Dickinson ViCell to determine cell viability and cell count per mL. The remaining cell suspension was then adjusted with growth media to deliver 1600 viable cells per well using a Matrix Combi Multidrop reagent dispenser, and the cells were dispensed into a white 384 well tissue culture treated assay plate (Corning 3570). The assay plate was then incubated for 48 h at 37° C. in a humidified environment (95% O2, 5% CO2)
Varying concentrations of each compound to be tested (in DMSO) were diluted in assay buffer [HBSS with Calcium/Magnesium (Lonza/BioWhittaker cat #10-527F)/0.1% BSA (Sigma Aldrich cat #A7409-1L)/20 mM HEPES (Lonza/BioWhittaker cat #17-737E)] containing 100 μM 3-isobutyl-1-methylxanthin (IBMX; Sigma cat #15879). The final DMSO concentration in the compound/assay buffer mixture is 1%.
After 48 h, the growth media was removed from the assay plate wells, and the cells were treated with 20 μL of the serially diluted compound in assay buffer for 30 min at 37° C. in a humidified environment (95% O2, 5% CO2). Following the 30 min incubation, 10 μL of labeled d2 cAMP and 10 μL of anti-cAMP antibody (both diluted 1:20 in cell lysis buffer; as described in the manufacturer's assay protocol) were added to each well of the assay plate. The plates were then incubated at room temperature and after 60 minutes, changes in the HTRF signal were read with an Envision 2104 multi-label plate reader using excitation of 330 nm and emissions of 615 and 665 nm. Raw data were converted to nM cAMP by interpolation from a cAMP standard curve (as described in the manufacturer's assay protocol) and the percent effect was determined relative to a saturating concentration of the full agonist GLP-1 (1 μM) included on each plate. EC50 determinations were made from agonist dose response curves analyzed with a curve fitting program using a 4-parameter logistic dose response equation.

human GLP-1R (Homo sapiens, UniProt P43220, G168S), sequence (P43220 24-463 G168S limits assumed): as the sequence (P43220 24-463 L260F) above, with G145S, F237L counted along it

SMILES	EC50 (human GLP-1R [1]; read-out: Assay 1 EC50) [nM]	Emax (human GLP-1R [1]) [%]	EC50 (human GLP-1R [2]) [nM]	Emax (human GLP-1R [2]) [%]	EC50 (human GLP-1R [1]; Assay 1 EC50 (nM)) [nM]
C[C@H]1CN(c2cccc(OCc3ccc(C#N)cc3F)n2)CCN1Cc1nc2ccc(C(=O)O)cc2n1Cc1cncn1C [Example 10A-25]	1.7	82	41	99	
Cn1ncnc1Cn1c(CN2CCC(c3cccc(OCc4ccc(Cl)cc4F)n3)CC2)nc2ccc(C(=O)O)cc21 [Example 11A-33, 2-[(4-{6-[(4-chloro-2-fluorobenzyl)oxy]pyridin-2-yl}piperidin-1-yl)methyl]-1-[(1-methyl-1H-1,2,4-triazol-5yl)methyl]-1H-benzimidazole-6-carboxylic acid]	96	86	1400	94	
COCCn1c(CN2CCN(c3nc(OCc4ccc(Cl)cc4F)ccc3F)C[C@@H]2C)nc2ccc(C(=O)O)cc21 [Example 1A-06, 2-{[(2S)-4-{6-[(4-chloro-2-fluorobenzyl)oxy]-3-fluoropyridin-2-yl}-2-methylpiperazin-1-yl]methyl}-1-(2-methoxyethyl)-1H-benzimidazole-6-carboxylic acid]	29	84	350	70	
COCCn1cnnc1Cn1c(CN2CCC(c3cccc(OCc4ccc(Cl)cc4F)n3)CC2)nc2ccc(C(=O)O)cc21 [Example 11A-19, 2-[(4-{6-[(4-chloro-2-fluorobenzyl)oxy]pyridin-2-yl}piperidin-1-yl)methyl]-1-{[4-(2-methoxyethyl)-4H-1,2,4-triazol-3-yl]methyl}-1H-benzimidazole-6-carboxylic acid]	15	83	230	110	
Cn1c(CN2CCC(c3cccc(OCc4ccc(C#N)cc4)n3)CC2)nc2ccc(C(=O)O)cc21 [Example 9A-15, 2-[(4-{6-[(4-cyanobenzyl)oxy]pyridin-2-yl}piperidin-1-yl)methyl]-1-methyl-1H-benzimidazole-6-carboxylic acid]	180	78	3500	90	
CCn1cncc1Cn1c(CN2CCC(c3cccc(OCc4ccc(C#N)cc4F)n3)CC2)nc2ccc(C(=O)O)cc21 [Example 10A-66, 2-[(4-{6-[(4-cyano-2-fluorobenzyl)oxy]pyridin-2-yl}piperidin-1-yl)methyl]-1-[(1-ethyl-1H-imidazol-5-yl)methyl]-1H-benzimidazole-6-carboxylic acid]	0.39	84	3.4	100	
CCn1cncc1Cn1c(CN2CCC(c3cccc(OCc4ccc(C#N)cc4F)n3)CC2)nc2ccc(C(=O)O)nc21 [Example 10A-75]	0.95	95	13	91	
C[C@H]1CN(c2cccc(OCc3ccc(C#N)cc3F)n2)CCN1Cc1nc2ccc(C(=O)O)cc2n1Cc1cnco1 [Example 10A-17]	1.8	77	59	85	
COCCn1c(CN2CCN(c3cccc(OCc4ccc(C#N)cc4)n3)CC2)nc2ccc(C(=O)O)cc21 [Example 1A-11, 2-[(4-{6-[(4-cyanobenzyl)oxy]pyridin-2-yl}piperazin-1-yl)methyl]-1-(2-methoxyethyl)-1H-benzimidazole-6-carboxylic acid]	19	76	530	97	
COCCn1c(CN2CC[C@@H](c3cccc(OCc4ccc(Cl)cc4F)n3)[C@H](O)C2)nc2ccc(C(=O)O)cc21 (racemic) [Example 1A-23, rac-2-{[(3S,4S)-4-{6-[(4-chloro-2-fluorobenzyl)oxy]pyridin-2-yl}-3-hydroxypiperidin-1-yl]methyl}-1-(2-methoxyethyl)-1H-benzimidazole-6-carboxylic acid]		83	1000	98	50
CN1CCC[C@@H]1Cn1c(CN2CCC(c3cccc(OCc4ccc(Cl)cc4F)n3)CC2)nc2ccc(C(=O)O)cc21 [Example 11A-34, 2-[(4-{6-[(4-chloro-2-fluorobenzyl)oxy]pyridin-2-yl}piperidin-1-yl)methyl]-1-{[(2R)-1-methylpyrrolidin-2-yl]methyl}-1H-benzimidazole-6-carboxylic acid]	110	70	3500	95	
Cn1c(CN2CCC(c3cccc(OCc4ccc(Cl)cc4F)n3)CC2)nc2cc(Cl)c(C(=O)O)cc21 [Example 2A-13, 5-chloro-2-[(4-{6-[(4-chloro-2-fluorobenzyl)oxy]pyridin-2-yl}piperidin-1-yl)methyl]-1-methyl-1H-benzimidazole-6-carboxylic acid]	770	78	> 15000	100	
N#Cc1ccc(COc2nc(C3CCN(Cc4nc5ccc(C(=O)O)cc5n4C[C@@H]4CCO4)CC3)ccc2F)c(F)c1 [Example 10A-54, 2-[(4-{6-[(4-cyano-2-fluorobenzyl)oxy]-5-fluoropyridin-2-yl}piperidin-1-yl)methyl]-1-[(2S)-oxetan-2-ylmethyl]-1H-benzimidazole-6-carboxylic acid]	0.71	81	11	100	
O=C(O)c1ccc2nc(CN3CCN(c4cccc(OCc5ccc(Cl)cc5F)n4)CC3)n(C[C@@H]3CCO3)c2c1 [Example 10A-08, 2-[(4-{6-[(4-chloro-2-fluorobenzyl)oxy]pyridin-2-yl}piperazin-1-yl)methyl]-1-[(2S)-oxetan-2-ylmethyl]-1H-benzimidazole-6-carboxylic acid]	0.55	77	9.2	94	

More lines, in order of falling EC50 (human GLP-1R [2]), values ahead:

EC50 (human GLP-1R [1]; read-out: Assay 1 EC50) [nM]	Emax (human GLP-1R [1]) [%]	EC50 (human GLP-1R [2]) [nM]	Emax (human GLP-1R [2]) [%]	EC50 (human GLP-1R [1]; Assay 1 EC50 (nM)) [nM]	SMILES
	88	5600	86	260	CO[C@H]1CCC[C@H]1Cn1c(CN2CCC(c3cccc(OCc4ccc(Cl)cc4F)n3)CC2)nc2ccc(C(=O)O)cc21 (racemic) [Example 1A-29, rac-2-[(4-{6-[(4-chloro-2-fluorobenzyl)oxy]pyridin-2-yl}piperidin-1-yl)methyl]-1-{[(1S,2S)-2-methoxycyclopentyl]methyl}-1H-benzimidazole-6-carboxylic acid]
54	77	1200	82		O=C(O)c1ccc2nc(CN3CCC(c4cccc(OCc5ccc(Cl)cc5F)n4)CC3)n(CCn3cccn3)c2c1 [Example 11A-28, 2-[(4-{6-[(4-chloro-2-fluorobenzyl)oxy]pyridin-2-yl}piperidin-1-yl)methyl]-1-[2-(1H-pyrazol-1-yl)ethyl]-1H-benzimidazole-6-carboxylic acid]
18	84	350	77		COCCn1c(CN2CCC(c3cccc(OCc4cc(F)c(Cl)cc4F)n3)CC2)nc2ccc(C(=O)O)cc21 [Example 8A-03, 2-((4-(6-((4-chloro-2,5-difluorobenzyl)oxy)pyridin-2-yl)piperidin-1-yl)methyl)-1-(2-methoxyethyl)-1H-benzo[d]imidazole-6-carboxylic acid]
21	82	200	81		COC(C)(C)Cn1c(CN2CCC(c3cccc(OCc4ccc(Cl)cc4F)n3)CC2)nc2ccc(C(=O)O)cc21 [Example 11A-22, 2-[(4-{6-[(4-chloro-2-fluorobenzyl)oxy]pyridin-2-yl}piperidin-1-yl)methyl]-1-(2-methoxy-2-methylpropyl)-1H-benzimidazole-6-carboxylic acid]
36	84	150	92		Cn1c(CN2CCC(c3cccc(OCc4ccc(Cl)cc4F)n3)CC2)nc2ncc(C(=O)O)cc21 [Example 2A-04, 2-[(4-{6-[(4-chloro-2-fluorobenzyl)oxy]pyridin-2-yl}piperidin-1-yl)methyl]-1-methyl-1H-imidazo[4,5-b]pyridine-6-carboxylic acid]
4.9	77	75	83		N#Cc1ccc(COc2cccc(C3CCN(Cc4nc5ccc(C(=O)O)cc5n4C[C@@H]4CCCO4)CC3)n2)c(F)c1 [Example 1A-21, 2-[(4-{6-[(4-cyano-2-fluorobenzyl)oxy]pyridin-2-yl}piperidin-1-yl)methyl]-1-[(2S)-tetrahydrofuran-2-ylmethyl]-1H-benzimidazole-6-carboxylic acid]
2.4	87	45	95		Cn1cncc1Cn1c(CN2CCC(c3cccc(OCc4ccc(F)cc4F)n3)CC2)nc2ccc(C(=O)O)cc21 [Example 1A-17, 2-[(4-{6-[(2,4-difluorobenzyl)oxy]pyridin-2-yl}piperidin-1-yl)methyl]-1-[(1-methyl-1H-imidazol-5-yl)methyl]-1H-benzimidazole-6-carboxylic acid]
1.6	78	33	78		C[C@H]1CN(c2cccc(OCc3ccc(Cl)cc3F)n2)CCN1Cc1nc2ccc(C(=O)O)cc2n1Cc1ncco1 [Example 10A-18, 2-{[(2S)-4-{6-[(4-chloro-2-fluorobenzyl)oxy]pyridin-2-yl}-2-methylpiperazin-1-yl]methyl}-1-(1,3-oxazol-2-ylmethyl)-1H-benzimidazole-6-carboxylic acid]
0.76	88	8.8	100		N#Cc1ccc(COc2cccc(C3CCN(Cc4nc5ccc(C(=O)O)nc5n4C[C@@H]4CCO4)CC3)n2)c(F)c1 [Example 6A-01, 2-[(4-{6-[(4-cyano-2-fluorobenzyl)oxy]pyridin-2-yl}piperidin-1-yl)methyl]-3-[(2S)-oxetan-2-ylmethyl]-3H-imidazo[4,5-b]pyridine-5-carboxylic acid]
